The assay addresses T1, Alpha-1D adrenergic receptor (Rattus norvegicus, UniProt P23944).
T1 sequence (P23944 whole entry): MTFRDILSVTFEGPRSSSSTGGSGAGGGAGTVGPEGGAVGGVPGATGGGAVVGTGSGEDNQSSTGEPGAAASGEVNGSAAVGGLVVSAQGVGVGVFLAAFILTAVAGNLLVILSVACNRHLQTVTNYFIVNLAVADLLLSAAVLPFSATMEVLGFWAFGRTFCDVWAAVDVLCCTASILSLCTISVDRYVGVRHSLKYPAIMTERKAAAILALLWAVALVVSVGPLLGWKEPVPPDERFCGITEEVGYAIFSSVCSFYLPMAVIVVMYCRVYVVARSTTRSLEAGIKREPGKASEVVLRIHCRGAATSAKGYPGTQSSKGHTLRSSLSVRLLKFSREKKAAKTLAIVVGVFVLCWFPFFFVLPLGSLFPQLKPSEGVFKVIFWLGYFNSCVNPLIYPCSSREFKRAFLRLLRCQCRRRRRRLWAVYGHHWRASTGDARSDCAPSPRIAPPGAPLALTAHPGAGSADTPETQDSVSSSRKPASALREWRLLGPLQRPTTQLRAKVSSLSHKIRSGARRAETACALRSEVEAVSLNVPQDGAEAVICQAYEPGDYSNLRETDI
Description: In vitro functional activity at Alpha-1D adrenergic receptor in rat aorta. It is filed as tissue-based. Particulars: read-out: pA2 (converted).

The structures appear in SMILES notation.

On to `COc1ccccc1N1CCN(CCn2c(=O)[nH]c3scc(-c4ccccc4)c3c2=O)CC1` [A-119637], for which the Kb was 0.0251 nM.
